The values that follow come from patent US10800782B2, “Inhibitors of cellular metabolic processes” (Agios Pharmaceuticals, Inc., priority 2016, dated 2020).

This experiment has as its target T1, MAT2A (Homo sapiens, UniProt P31153).
T1 construct: His6; made in house; host or cells: SF9 insect cells
Nature of the experiment: MAT2A biochemical assay (colorimetric inorganic phosphate detection, PiColorLock). The following applies: recombinant His6-tagged MAT2A 1 μg/ml; 60 minutes preincubation at 25° C.; L-Met 80 μM, ATP 100 μM; 60 minutes reaction; read at 623 nm; read-out: MAT2A Inhibition Score. Put shortly: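 Colorimetric malachite green readout of phosphate released when MAT2A turns over L-Met and ATP, after 60 min at room temperature. Enzyme: SF9-expressed His6-tagged MAT2A at 1 μg/ml. Buffer: Tris pH 8.0, 50 mM KCl, 15 mM MgCl2, 300 uM EDTA, 0.005% BSA. Compounds tested as ten-point three-fold dilutions.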

T1 sequence (P31153 whole entry): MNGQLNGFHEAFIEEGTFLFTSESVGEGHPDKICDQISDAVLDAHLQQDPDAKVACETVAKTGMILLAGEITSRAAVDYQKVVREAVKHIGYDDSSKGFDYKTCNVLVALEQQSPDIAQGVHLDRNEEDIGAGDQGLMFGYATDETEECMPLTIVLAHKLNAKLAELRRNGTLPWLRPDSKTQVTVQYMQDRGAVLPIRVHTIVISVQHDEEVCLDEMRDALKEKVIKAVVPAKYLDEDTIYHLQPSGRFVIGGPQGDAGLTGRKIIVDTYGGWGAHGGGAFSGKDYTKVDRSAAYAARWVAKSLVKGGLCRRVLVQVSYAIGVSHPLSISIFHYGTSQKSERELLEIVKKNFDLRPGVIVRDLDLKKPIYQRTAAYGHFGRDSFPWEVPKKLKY

Consider `COc1ccc(-c2c(C)[nH]c3c(-c4ccccc4)c(-c4ccccc4)nn3c2=O)cn1` [Compound 333, 6-(6-methoxypyridin-3-yl)-5-methyl-2,3-diphenylpyrazolo[1,5-a]pyrimidin-7(4H)-one], for which the IC50 lay in the range of 100 to 1000 nM.
As for `Cc1[nH]c2c(-c3ccccc3)c(-c3ccccc3)nn2c(=O)c1-c1ccc2occc2c1` [Compound 334, 6-(benzofuran-5-yl)-5-methyl-2,3-diphenylpyrazolo[1,5-a]pyrimidin-7(4H)-one], the figure is 100 to 1000 nM.
Regarding `Cc1[nH]c2c(-c3ccccc3)c(-c3ccccc3)nn2c(=O)c1-c1ccc2nnccc2c1` [Compound 335, 6-(cinnolin-6-yl)-5-methyl-2,3-diphenylpyrazolo[1,5-a]pyrimidin-7(4H)-one], the IC50 is 100 to 1000 nM.
With `Cc1[nH]c2c(-c3ccccc3)c(-c3ccccc3)nn2c(=O)c1C1=CCC(=O)CC1` [Compound 336, 5-methyl-6-(4-oxocyclohex-1-en-1-yl)-2,3-diphenylpyrazolo[1,5-a]pyrimidin-7(4H)-one], the IC50 lay within 100 to 1000 nM.
Consider `Cc1[nH]c2c(-c3ccccc3)c(-c3ccccc3)nn2c(=O)c1C1=CCC(O)CC1` (centres unmarked) [Compound 337, 6-(4-hydroxycyclohex-1-en-1-yl)-5-methyl-2,3-diphenylpyrazolo[1,5-a]pyrimidin-7(4H)-one], for which the IC50 lay within 100 to 1000 nM.
The value for `COc1ccc(-c2c(Cn3cnnn3)[nH]c3c(-c4ccccc4)c(-c4ccccc4)nn3c2=O)cc1` [Compound 338, 5-((1H-tetrazol-1-yl)methyl)-6-(4-methoxyphenyl)-2,3-diphenylpyrazolo[1,5-a]pyrimidin-7(4H)-one] was 100 to 1000 nM; that for `COc1ccc(-c2c(Cn3ncnn3)[nH]c3c(-c4ccccc4)c(-c4ccccc4)nn3c2=O)cc1` [Compound 339, 5-((2H-tetrazol-2-yl)methyl)-6-(4-methoxyphenyl)-2,3-diphenylpyrazolo[1,5-a]pyrimidin-7(4H)-one] was 100 to 1000 nM; that for `COc1ccc(-c2c(CNC(=O)[C@@H](N)C(C)C)[nH]c3c(-c4ccccc4)c(-c4ccccc4)nn3c2=O)cc1` [Compound 340, (S)-2-amino-N-((6-(4-methoxyphenyl)-7-oxo-2,3-diphenyl-4,7-dihydropyrazolo[1,5-a]pyrimidin-5-yl)methyl)-3-methylbutanamide] was 100 to 1000 nM.
Regarding `Cc1[nH]c2c(-c3ccccc3)c(-c3cccc(Cl)c3)nn2c(=O)c1-c1ccc2ncccc2c1` [Compound 346, 2-(3-chlorophenyl)-5-methyl-3-phenyl-6-(quinolin-6-yl)pyrazolo[1,5-a]pyrimidin-7(4H)-one], the IC50 lay in the range of 1000 to 10000 nM.
In the case of `Cc1[nH]c2c(-c3ccccc3)c(-c3ccc(Cl)cc3)nn2c(=O)c1-c1ccc2ncccc2c1` [Compound 347, 2-(4-chlorophenyl)-5-methyl-3-phenyl-6-(quinolin-6-yl)pyrazolo[1,5-a]pyrimidin-7(4H)-one], the IC50 was 1000 to 10000 nM.
Regarding `Cc1[nH]c2c(-c3ccccc3)c(-c3ccncc3)nn2c(=O)c1-c1ccc2ncccc2c1` [Compound 348, 5-methyl-3-phenyl-2-(pyridin-4-yl)-6-(quinolin-6-yl)pyrazolo[1,5-a]pyrimidin-7(4H)-one], the IC50 was in the range of 1000 to 10000 nM.
On to `COc1ccc(-c2nn3c(=O)c(-c4ccc5ncccc5c4)c(C)[nH]c3c2-c2ccccc2)cn1` [Compound 349, 2-(6-methoxypyridin-3-yl)-5-methyl-3-phenyl-6-(quinolin-6-yl)pyrazolo[1,5-a]pyrimidin-7(4H)-one], for which the IC50 lay in the range of 1000 to 10000 nM.
Turning to `Cc1[nH]c2c(-c3ccccc3)c(-c3ccnc(Cl)c3)nn2c(=O)c1-c1ccc2ncccc2c1` [Compound 350, 2-(2-chloropyridin-4-yl)-5-methyl-3-phenyl-6-(quinolin-6-yl)pyrazolo[1,5-a]pyrimidin-7(4H)-one], the IC50 was in the range of 1000 to 10000 nM.
Regarding `COc1cc(-c2nn3c(=O)c(-c4ccc5ncccc5c4)c(C)[nH]c3c2-c2ccccc2)ccn1` [Compound 351, 2-(2-methoxypyridin-4-yl)-5-methyl-3-phenyl-6-(quinolin-6-yl)pyrazolo[1,5-a]pyrimidin-7(4H)-one], the IC50 fell in the range of 1000 to 10000 nM.
`O=c1c(-c2ccc3ncccc3c2)cn(CCn2cnnn2)c2c(-c3ccccc3)c(-c3ccccc3)nn12` [Compound 352, 4-(2-(1H-tetrazol-1-yl)ethyl)-2,3-diphenyl-6-(quinolin-6-yl)pyrazolo[1,5-a]pyrimidin-7(4H)-one]: the IC50 lay within 1000 to 10000 nM.
Regarding `NCCn1cc(-c2ccc3ncccc3c2)c(=O)n2nc(-c3ccccc3)c(-c3ccccc3)c12` [Compound 353, 4-(2-aminoethyl)-2,3-diphenyl-6-(quinolin-6-yl)pyrazolo[1,5-a]pyrimidin-7(4H)-one], the IC50 lay in the range of 1000 to 10000 nM.
On to `COc1ccc(-c2c(Oc3cccnn3)[nH]c3c(-c4ccccc4)c(-c4ccccc4)nn3c2=O)cc1` [Compound 354, 6-(4-methoxyphenyl)-2,3-diphenyl-5-(pyridazin-3-yloxy)pyrazolo[1,5-a]pyrimidin-7(4H)-one], for which the IC50 is 1000 to 10000 nM.
As for `COc1ccc(-c2c(Oc3ccccc3)[nH]c3c(-c4ccccc4)c(-c4ccccc4)nn3c2=O)cc1` [Compound 355, 6-(4-methoxyphenyl)-5-phenoxy-2,3-diphenylpyrazolo[1,5-a]pyrimidin-7(4H)-one], the figure is 1000 to 10000 nM.
Consider `COc1ccc(-c2c(Nc3ccccc3)[nH]c3c(-c4ccccc4)c(-c4ccccc4)nn3c2=O)cc1` [Compound 356, 6-(4-methoxyphenyl)-2,3-diphenyl-5-(phenylamino)pyrazolo[1,5-a]pyrimidin-7(4H)-one], for which the IC50 was in the range of 100 to 1000 nM.
As for `COc1ccc(-c2c(C)[nH]c3c(N4CCCCC4)c(-c4ccccc4)nn3c2=O)cn1` [Compound 358, 6-(6-methoxypyridin-3-yl)-5-methyl-2-phenyl-3-(piperidin-1-yl)pyrazolo[1,5-a]pyrimidin-7(4H)-one], the figure is less than 100 nM.
